From publication PMC10611510, “Teicoplanin associated gene tcaA inactivation increases persister cell formation in Staphylococcus aureus” (Frontiers in Microbiology, 2023)
≈ marks a conversion by molar mass, not a printed value. Entries after “also recorded” stand apart in the source; their conditions may differ. Like-named read-outs stand apart in the source and are kept apart here.

How the values were obtained:
S. aureus WT [1] = experiment: Growth curve analysis; format: cell-based, Staphylococcus aureus; settings: OD600, 37°C
Method: (§1) The overnight culture was 100 times diluted in TSB medium and a 200 μL was inoculated into a 96-well microtiter plate. The plates were incubated at 37°C with shaking at 200 rpm. At different time intervals (1–18 and 24 h), OD600 was measured using a microplate reader (Thermo Fisher, Waltham, MA, USA).

MRSA MW2 = experiment: Growth curve analysis; format: cell-based, Staphylococcus aureus; settings: OD600, 37°C
Method: as §1

ΔtcaA [2] = experiment: Growth curve analysis; format: cell-based, Staphylococcus aureus; settings: OD600, 37°C
Method: as §1

C-ΔtcaA = experiment: Growth curve analysis; format: cell-based, Staphylococcus aureus; settings: OD600, 37°C
Method: as §1

dCas9-tcaA = experiment: Persister assay; settings: dCas9-tcaA vs WT-dCas9, 10-fold MIC, CFU counting; for Surviving fraction of cells (persisters), fold relative to control: after 12 h, triplicates; for Increase in persister cells, fold relative to control: after 48 h
Method: (§2) A persistence assay was adopted from our previous protocol ([Habib et al., 2020]). The cells were grown to OD600 = 0.40 in the TSB medium. The pSD1 containing dCas9-tcaA and dCas9-tcaB were induced with ATC 100 ng/mL for 1 h, the medium was removed, and fresh TSB and antibiotic were added whereas ΔtcaA cells were challenged with antibiotic at OD600 = 0.40. After 12 h, a 200 μL sample was taken and CFU counting was performed. Each antibiotic concentration was 10 fold of MIC, and S. aureus WT and S. aureus WT-dCas9 were used as controls.

ΔtcaA [3] = experiment: Antibiotic susceptibility testing (inhibition zones); format: cell-based, Staphylococcus aureus; settings: 100 fold MIC, 2 × 10^9 CFU/mL, 37°C, inhibition zones after 24–36 h; Supplementary Figure S1
[4] = test system: penicillin binding protein-2 (pbp2) ectopic expression; settings: ref Sieradzki et al., 1998, cited from earlier work; for MIC after the increase: end value of the increase associated with pbp2 ectopic expression; for MIC before the increase: start value of the increase associated with pbp2 ectopic expression
Description: Staphylococcus aureus has two major types of resistant strains, namely, methicillin-resistant S. aureus (MRSA) and vancomycin-resistant S. aureus (VRSA). MRSA is considered the major cause of hospital and community-acquired infections ([Aqib and Rodriguez-Morales, 2021]) and is largely treated with glycopeptides. However, the emergence of teicoplanin resistance, vancomycin-intermediate S. aureus (VISA), and VRSA has made the clinical treatment unsuccessful and increased death rates across the world ([Howden et al., 2010]). S. aureus resistant to glycopeptides are a serious threat to public hea ...

resistant isolates = settings: ref Wang Y. et al., 2017; cited from earlier work
Description: Glycopeptide resistance in MRSA is a global problem and vancomycin- and teicoplanin-resistant strains are of major clinical relevance. Several studies have reported the emergence of teicoplanin and vancomycin resistance in S. aureus ([Wang Y. et al., 2017]; [Szymanek-Majchrzak et al., 2018]; [Wu et al., 2021]). Typically, teicoplanin and vancomycin bind to D-alanine-D-alanine subunits of the murein monomer and cross resistance could develop between teicoplanin and vancomycin ([Bakthavatchalam et al., 2019]). The cell wall thickness also contributed to the development of vancomycin and teicopla ...

ΔtcaA [5] = test system: ΔtcaA
Method: as §2

S. aureus WT [6] = experiment: microbe, parasite or virus in culture; format: cell-based, Staphylococcus aureus
ΔtcaA [7] = experiment: Fluorescence microscopy of persister cell resuscitation (GFP); settings: 20-fold MIC for 48 h, washed, fresh TSB 2 h at 37°C; ΔtcaA compared to WT
Method: Fluorescence microscopy was used to observe the persister cell resuscitation ability of the whole population. […] The cells were harvested, washed with ddH2O, and resuspended in TSB media. The cells were grown for 2 h at 37°C and the S. aureus WT and ΔtcaA were observed under the fluorescence microscope.

dCas9-tcaB = experiment: Persister assay; settings: dCas9-tcaB vs WT-dCas9 and WT; 10-fold MIC
Method: as §2

ΔtcaA [8] = experiment: Persister assay
Method: as §2

ΔtcaA [9] = experiment: MIC, two-fold broth microdilution (CLSI); format: cell-based; settings: Staphylococcus aureus
[10] = C-ΔtcaA complementary strain, 1 mg/L
[11] = ΔtcaA complementary strain, 2 mg/L

Row | Molecule | Growth in TSB with antibiotic (in words) (S. aureus WT [1]; 1 mg/L) | Growth in TSB with antibiotic (in words) (S. aureus WT [1]; 2 mg/L) | Growth in TSB with antibiotic (in words) (MRSA MW2; 1 mg/L) | Growth in TSB with antibiotic (in words) (MRSA MW2; 2 mg/L) | Growth in TSB with antibiotic (in words) (ΔtcaA [2]; 1 mg/L) | Growth in TSB with antibiotic (in words) (ΔtcaA [2]; 2 mg/L) | Growth in TSB with antibiotic (in words) (C-ΔtcaA; [10]) | Growth in TSB with antibiotic (in words) (C-ΔtcaA; [11]) | Surviving fraction of cells (persisters), fold relative to control (dCas9-tcaA) [fold] | Increase in persister cells, fold relative to control (dCas9-tcaA) [fold] | Susceptibility of ΔtcaA (in words) (ΔtcaA [3]) | MIC after the increase [4] [µg/mL] | MIC before the increase [4] [µg/mL] | MIC (resistant isolates) [µg/mL] | Susceptibility of the isolate (in words) (S. aureus WT [6]) | MIC (S. aureus WT [6]; Staphylococcus aureus) [µg/mL] | GFP-expressing cells after antibiotic removal (resuscitation) (ΔtcaA [7]) | Persister cell formation relative to controls (in words) (dCas9-tcaB) | MIC (ΔtcaA [9]) [µg/mL] | other results
1 | CN[C@H](CC(C)C)C(=O)N[C@H]1C(=O)N[C@@H](CC(N)=O)C(=O)N[C@H]2C(=O)N[C@H]3C(=O)N[C@H](C(=O)N[C@H](C(=O)O)c4cc(O)cc(O)c4-c4cc3ccc4O)[C@H](O)c3ccc(c(Cl)c3)Oc3cc2cc(c3O[C@@H]2O[C@H](CO)[C@@H](O)[C@H](O)[C@H]2O[C@H]2C[C@](C)(N)[C@H](O)[C@H](C)O2)Oc2ccc(cc2Cl)[C@H]1O [Vancomycin] | fast and steady growth | slow growth | slow growth rates | did not show any growth | fast and steady growth | slow growth | fast and steady growth | slow growth | 15 | 10 | resistance; also recorded: susceptibility was decreased | 2 (≈ 1.38 µM) | 1 (≈ 0.69 µM) | 2 (≈ 1.38 µM) | resistant | 10 (≈ 6.9 µM) | high number of cells expressing GFP in ΔtcaA cells compared to WT | did not induce persister cell formation |  | Increase in persister cells, fold (tcaA persistence assay, summary) (ΔtcaA [5]): 10–11 fold; Increase in persister cells, fold relative to control (ΔtcaA [5]): 11 fold
2 | Teicoplanin | fast and steady growth | slow growth | slow growth rates | did not show any growth | fast and steady growth | slow growth | fast and steady growth | slow growth | 17 | 13 | resistance; also recorded: susceptibility was decreased | 8 | 2 | 16 | resistant |  | high number of cells expressing GFP in ΔtcaA cells compared to WT | did not induce persister cell formation |  | MIC (S. aureus WT [6]): 16 µg/mL; Increase in persister cells, fold (tcaA persistence assay, summary) (ΔtcaA [8]; summary over dCas9-tcaA and ΔtcaA, discussion): 13–14 fold; Surviving fraction of cells (persisters), fold relative to control (ΔtcaA [8]; ΔtcaA vs WT, 10-fold MIC, after 12 h, CFU counting, triplicates): 18 fold; Increase in persister cells, fold relative to control (ΔtcaA [8]; ΔtcaA vs WT, 10-fold MIC, after 48 h, CFU counting): 14 fold
3 | COc1cccc(OC)c1C(=O)N[C@@H]1C(=O)N2[C@@H]1SC(C)(C)[C@@H]2C(=O)O [Methicillin] |  |  |  |  |  |  |  |  |  |  |  |  |  |  | resistant | > 512 |  |  | ≥ 256 | 
4 | CC[C@H]1OC(=O)[C@H](C)[C@@H](O[C@H]2C[C@@](C)(OC)[C@@H](O)[C@H](C)O2)[C@H](C)[C@@H](O[C@@H]2O[C@H](C)C[C@H](N(C)C)[C@H]2O)[C@](C)(O)C[C@@H](C)CN(C)[C@H](C)[C@@H](O)[C@]1(C)O [Azithromycin] |  |  |  |  |  |  |  |  |  |  | did not affect |  |  |  | sensitive | ≤ 8 |  |  | ≤ 8 | 
